# Measured values published in patent US20260374756A1, “HETEROCYCLIC COMPOUNDS AS INHIBITORS OF MONOACYLGLYCEROL LIPASE (MAGL)” (Hoffmann-La Roche Inc., priority 2022, published 2026).
# Target: T1, hMAGL (Homo sapiens, UniProt Q99685)
# T1 sequence (Q99685 1-303): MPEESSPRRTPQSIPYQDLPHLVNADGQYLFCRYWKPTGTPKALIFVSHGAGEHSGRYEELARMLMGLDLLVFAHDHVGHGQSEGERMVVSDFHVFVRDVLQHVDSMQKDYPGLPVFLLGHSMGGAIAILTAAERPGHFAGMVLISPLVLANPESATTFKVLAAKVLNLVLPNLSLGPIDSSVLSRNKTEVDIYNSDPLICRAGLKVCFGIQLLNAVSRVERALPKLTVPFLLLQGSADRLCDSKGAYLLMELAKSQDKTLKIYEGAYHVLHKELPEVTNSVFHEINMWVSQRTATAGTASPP
# Assay: 2-AG assay: MAGL inhibition, hydrolysis of 2-arachidonoylglycerol to arachidonic acid followed by mass spectrometry
# Format: biochemical
# Summary of the method: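 Read-out is LC-MS/MS of arachidonic acid released from 2-arachidonoylglycerol (8 μM final), normalised to d8-arachidonic acid internal standard after acetonitrile quench. Enzyme […] and compound were pre-mixed 15 min, then reacted 30 min, both at RT, in Tris/EDTA buffer with 0.01% Tween-20 and 2.5% DMSO.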
row,Compound,IC50 [nM]
1,"O=C(N1CC2(CC(n3cnc(C(F)(F)F)n3)C2)C1)N1CC2(CN(Cc3cnn(CC(F)(F)F)n3)C2)C1 [Example 195, [6-[[2-(2,2,2-trifluoroethyl)triazol-4-yl]methyl]-2,6-diazaspiro[3.3]heptan-2-yl]-[6-[3-(trifluoromethyl)-1,2,4-triazol-1-yl]-2-azaspiro[3.3]heptan-2-yl]methanone]",439
2,"O=C(N1CC2(CC(n3cnc(C4(O)CC4)n3)C2)C1)N1CC2(CN(Cc3nc(C4CC4)ns3)C2)C1 [Example 45, [6-[(3-cyclopropyl-1,2,4-thiadiazol-5-yl)methyl]-2,6-diazaspiro[3.3]heptan-2-yl]-[6-[3-(1-hydroxycyclopropyl)-1,2,4-triazol-1-yl]-2-azaspiro[3.3]heptan-2-yl]methanone]",118
3,O=C(N1CC2(CC(n3cnc(C(F)(F)F)n3)C2)C1)N1CC2(CN(Cc3ncc(C(F)(F)F)s3)C2)C1 [Example 149],1.78
4,"CC(C)(C)c1ncc(CN2CC3(C2)CN(C(=O)N2CC4(CC(n5cnc(C6(O)CC6)n5)C4)C2)C3)s1 [Example 58, [6-[(2-tert-butylthiazol-5-yl)methyl]-2,6-diazaspiro[3.3]heptan-2-yl]-[6-[3-(1-hydroxycyclopropyl)-1,2,4-triazol-1-yl]-2-azaspiro[3.3]heptan-2-yl]methanone]",8.12
5,"O=C(N1CC2(CC(Cc3cc(C4CC4)n[nH]3)C2)C1)N1CC2(CC(n3cnc(C(F)(F)F)n3)C2)C1 [Example 123, [6-[(3-cyclopropyl-1H-pyrazol-5-yl)methyl]-2-azaspiro[3.3]heptan-2-yl]-[6-[3-(trifluoromethyl)-1,2,4-triazol-1-yl]-2-azaspiro[3.3]heptan-2-yl]methanone]",0.34
6,"O=C(N1CC2(CC(n3cnc(C4CC4)n3)C2)C1)N1CC2(CN(Cc3snnc3C3CC3)C2)C1 [Example 90, [6-[(4-cyclopropylthiadiazol-5-yl)methyl]-2,6-diazaspiro[3.3]heptan-2-yl]-[6-(3-cyclopropyl-1,2,4-triazol-1-yl)-2-azaspiro[3.3]heptan-2-yl]methanone]",223
7,Cn1nc(C(F)(F)F)cc1CN1CCC2(CC1)CN(C(=O)N1CC3(CC(c4cc(C5CC5)n[nH]4)C3)C1)C2 [Example 24],6.51
8,"Cn1nc(CN2CC3(C2)CN(C(=O)N2CC4(CC(n5cnc(C6CC6)n5)C4)C2)C3)cc1C(F)(F)F [Example 162, [6-(3-cyclopropyl-1,2,4-triazol-1-yl)-2-azaspiro[3.3]heptan-2-yl]-[6-[[1-methyl-5-(trifluoromethyl)pyrazol-3-yl]methyl]-2,6-diazaspiro[3.3]heptan-2-yl]methanone]",5.27
9,"O=C(N1CC2(CC(n3cnc(C4CC4)n3)C2)C1)N1CC2(CN(Cc3ncc(C(F)F)s3)C2)C1 [Example 188, [6-(3-cyclopropyl-1,2,4-triazol-1-yl)-2-azaspiro[3.3]heptan-2-yl]-[6-[[5-(difluoromethyl)thiazol-2-yl]methyl]-2,6-diazaspiro[3.3]heptan-2-yl]methanone]",3.94
10,"O=C(N1CC2(CC(Cn3cnc(C(F)(F)F)c3)C2)C1)N1CC2(CC(c3cc(C4CC4)n[nH]3)C2)C1 [Example 39, [6-(3-cyclopropyl-1H-pyrazol-5-yl)-2-azaspiro[3.3]heptan-2-yl]-[6-[[4-(trifluoromethyl)imidazol-1-yl]methyl]-2-azaspiro[3.3]heptan-2-yl]methanone]",1.56
11,"O=C(N1CC2(CCN(Cc3cc(C(F)(F)F)no3)CC2)C1)N1CC2(CC(n3cnc(C4CC4)n3)C2)C1 [Example 329, [6-(3-cyclopropyl-1,2,4-triazol-1-yl)-2-azaspiro[3.3]heptan-2-yl]-[7-[[3-(trifluoromethyl)isoxazol-5-yl]methyl]-2,7-diazaspiro[3.5]nonan-2-yl]methanone]",13.9
12,"O=C(N1CC2(CC(Cc3cnn4ccc(C(F)(F)F)nc34)C2)C1)N1CC2(CC(n3cnc(C4CC4)n3)C2)C1 [Example 358, [6-(3-cyclopropyl-1,2,4-triazol-1-yl)-2-azaspiro[3.3]heptan-2-yl]-[6-[[5-(trifluoromethyl)pyrazolo[1,5-a]pyrimidin-3-yl]methyl]-2-azaspiro[3.3]heptan-2-yl]methanone]",0.09

# Continued by falling IC50, values first:
row,IC50 [nM],Compound
1,907,"CCc1nc(C)c(CN2CC3(C2)CN(C(=O)N2CC4(CC(n5cnc(C6CC6)n5)C4)C2)C3)[nH]1 [Example 306, [6-(3-cyclopropyl-1,2,4-triazol-1-yl)-2-azaspiro[3.3]heptan-2-yl]-[6-[(2-ethyl-4-methyl-1H-imidazol-5-yl)methyl]-2,6-diazaspiro[3.3]heptan-2-yl]methanone]"
2,302,"O=C(N1CC2(CCC(Cc3nnc(C(F)(F)F)[nH]3)CC2)C1)N1CC2(CC(n3cnc(C4CC4)n3)C2)C1 [Example 36, [6-(3-cyclopropyl-1,2,4-triazol-1-yl)-2-azaspiro[3.3]heptan-2-yl]-[7-[[5-(trifluoromethyl)-4H-1,2,4-triazol-3-yl]methyl]-2-azaspiro[3.5]nonan-2-yl]methanone]"
3,165,"CS(=O)(=O)c1cnn(CC2CC3(C2)CN(C(=O)N2CC4(CC(n5cnc(C6(O)CC6)n5)C4)C2)C3)c1 [Example 313, [6-[3-(1-hydroxycyclopropyl)-1,2,4-triazol-1-yl]-2-azaspiro[3.3]heptan-2-yl]-[6-[(4-mesylpyrazol-1-yl)methyl]-2-azaspiro[3.3]heptan-2-yl]methanone]"
4,164,"Cn1cnc(C#N)c1CN1CC2(C1)CN(C(=O)N1CC3(CC(n4cnc(C5CC5)n4)C3)C1)C2 [Example 281, 5-[[2-[6-(3-cyclopropyl-1,2,4-triazol-1-yl)-2-azaspiro[3.3]heptane-2-carbonyl]-2,6-diazaspiro[3.3]heptan-6-yl]methyl]-1-methyl-imidazole-4-carbonitrile]"
5,158,"O=C(N1CC2(CC(n3cnc(C(F)(F)F)n3)C2)C1)N1CC2(CN(Cc3nc[nH]c3C(F)(F)F)C2)C1 [Example 237, [6-[[5-(trifluoromethyl)-1H-imidazol-4-yl]methyl]-2,6-diazaspiro[3.3]heptan-2-yl]-[6-[3-(trifluoromethyl)-1,2,4-triazol-1-yl]-2-azaspiro[3.3]heptan-2-yl]methanone]"
6,135,"O=C(N1CC2(CC(Cc3ncn(CC(F)(F)F)n3)C2)C1)N1CC2(CC(n3cnc(C4(O)CC4)n3)C2)C1 [Example 203, [6-[3-(1-hydroxycyclopropyl)-1,2,4-triazol-1-yl]-2-azaspiro[3.3]heptan-2-yl]-[6-[[1-(2,2,2-trifluoroethyl)-1,2,4-triazol-3-yl]methyl]-2-azaspiro[3.3]heptan-2-yl]methanone]"
7,20.4,"O=C(N1CC2(CC(Cc3n[nH]c(C(F)(F)F)n3)C2)C1)N1CC2(CC(n3cnc(C4(O)CC4)n3)C2)C1 [Example 11, [6-[3-(1-hydroxycyclopropyl)-1,2,4-triazol-1-yl]-2-azaspiro[3.3]heptan-2-yl]-[6-[[5-(trifluoromethyl)-1H-1,2,4-triazol-3-yl]methyl]-2-azaspiro[3.3]heptan-2-yl]methanone]"
8,5.1,"O=C(N1CC2(CC(Cn3ccc(C(F)(F)F)n3)C2)C1)N1CC2(CC(n3cnc(C4(O)CC4)n3)C2)C1 [Example 293, [6-[3-(1-hydroxycyclopropyl)-1,2,4-triazol-1-yl]-2-azaspiro[3.3]heptan-2-yl]-[6-[[3-(trifluoromethyl)pyrazol-1-yl]methyl]-2-azaspiro[3.3]heptan-2-yl]methanone]"
9,4.93,"Cn1cc(CC2CC3(C2)CN(C(=O)N2CC4(CC(n5cnc(C6(O)CC6)n5)C4)C2)C3)c(C(F)(F)F)n1 [Example 6, [6-[3-(1-hydroxycyclopropyl)-1,2,4-triazol-1-yl]-2-azaspiro[3.3]heptan-2-yl]-[6-[[1-methyl-3-(trifluoromethyl)pyrazol-4-yl]methyl]-2-azaspiro[3.3]heptan-2-yl]methanone]"
10,4.54,"Cc1cc(C2CC2)n(CC2CC3(C2)CN(C(=O)N2CC4(CC(n5cnc(C6(O)CC6)n5)C4)C2)C3)n1 [Example 133, [6-[(5-cyclopropyl-3-methyl-pyrazol-1-yl)methyl]-2-azaspiro[3.3]heptan-2-yl]-[6-[3-(1-hydroxycyclopropyl)-1,2,4-triazol-1-yl]-2-azaspiro[3.3]heptan-2-yl]methanone]"
11,1.16,"CC(C)(C)c1csc(CN2CC3(C2)CN(C(=O)N2CC4(CC(n5cnc(C(F)(F)F)n5)C4)C2)C3)n1 [Example 200, [6-[(4-tert-butylthiazol-2-yl)methyl]-2,6-diazaspiro[3.3]heptan-2-yl]-[6-[3-(trifluoromethyl)-1,2,4-triazol-1-yl]-2-azaspiro[3.3]heptan-2-yl]methanone]"
12,0.94,"O=C(N1CC2(CC(Cn3ccc(C4CC4)n3)C2)C1)N1CC2(CC(n3cnc(C(F)(F)F)n3)C2)C1 [Example 142, [6-[(3-cyclopropylpyrazol-1-yl)methyl]-2-azaspiro[3.3]heptan-2-yl]-[6-[3-(trifluoromethyl)-1,2,4-triazol-1-yl]-2-azaspiro[3.3]heptan-2-yl]methanone]"
13,0.3,"O=C(N1CC2(CC(Cc3cnn4cc(C(F)(F)F)cnc34)C2)C1)N1CC2(CC(n3cnc(C4CC4)n3)C2)C1 [Example 360, [6-(3-cyclopropyl-1,2,4-triazol-1-yl)-2-azaspiro[3.3]heptan-2-yl]-[6-[[6-(trifluoromethyl)pyrazolo[1,5-a]pyrimidin-3-yl]methyl]-2-azaspiro[3.3]heptan-2-yl]methanone]"
